Like-named read-outs stand apart in the source and are kept apart here.
Experiments:
albino mouse = conditions: oral, comparison value; cited from earlier work
Musca domestica [1] = conditions: 0.5 γ/insect; literature compounds (Agricultural and Food Chemistry 11, 1963, p.237); cited from earlier work
[2] = system: Leptinotarsa decemlineata; test: Activity test on Leptinotarsa decemlineata larvae on potato plants; type: in vivo; conditions: for mortality at 1 %: read-out: % mort. Leptinot. Decemlin.
Text: Potato plants grown in pots were infested with 4-day old larvae and subjected to besprinkling with an aqueous 0.1% dispersion of the product of Example 1.
(§1) In order to show how the compounds of the invention have different activities depending on the species at varying concentrations, the death-rate percentages on various infesting kinds of compounds of the invention at varying concentrations of active principle have been recorded in Table II.

Spodopt. Littoralis = test: Activity on Spodopt. Littoralis (Table II); type: in vivo; conditions: 1 % a.p.
Text: as §1

Pieris Brassicae = test: Activity on Pieris Brassicae (Table II); type: in vivo; conditions: read-out: % mort. Pieris Brassicae
Text: as §1

Tetran. Urt. adults = test: Activity on Tetran. Urt. adults (Table II); type: in vivo
Text: as §1

Tetran Urt. eggs = test: Activity on Tetran Urt. eggs (Table II); type: in vivo
Text: as §1

Culex pipiens = test: Activity test on Culex pipiens larvae in aqueous dispersion; type: in vivo
Text: Into glasses containing an aqueous dispersion of the product of Example 1 and at a concentration of 0.005 parts per million, p.p.m.: there were introduced larvae of third and fourth age.
as §1

Macrosiphum Euphorbiae = test: Activity test on Macrosiphum euphorbiae (aphides) on potato plants; type: in vivo
Text: Small potato plants, grown in pots, were infested with adult aphide females and, after a few hours, subjected to besprinkling with an aqueous dispersion of the product of Example 1, at a concentration of 0.1%. The percentual death-rate turned out to be 100% (on small untreated plants = 0).
as §1

[3] = Acute oral toxicity (DL 50) in the albino mouse; conditions: in vivo
Musca domestica [4] = test: Activity test on Musca domestica, topical application; type: in vivo
Description: Activity of "Musca domestica" by O-methyl-O-(2,4,5-trichlorophenyl)-phosphoroamidothioates with relationship to the weight of the alkyl group bound to the nitrogen atom (iso-C3 H7 = 1) in comparison with that of the compound of Example 1 of this invention (in a quantity of 0.5 γ/insect):
Adult 4-day flies were treated by topical application by means of a micro-syringe of 1 cubic millimeters (mm^3) of an acetone solution at 0.5 γ/ .mm^3 according to Example 1. […] (The death-rate of the flies treated with 1 .mm^3 of acetone under the same conditions was equal to 0).

CCOP(=S)(OCC)Oc1ccc([N+](=O)[O-])cc1 [Parathion, O,O-diethyl-O-p-nitrophenyl-phosphorthioate]
D.L. 50 (albino mouse): 14 mg/kg

COP(=S)(NC(C)C)Oc1ccc(Cl)cc1Cl (stereo not drawn)
Percentual death-rate on Musca domestica (Musca domestica [1]): 100%

CSc1ccc(OP(=S)(OC(C)C)N(C)CC=C(Cl)Cl)cc1C (stereo not drawn) [M 7471]
mortality at 1 % ([2]; 1 % a.p.): 65% | % mort. Spodopt. Littoralis (Spodopt. Littoralis): 0% | mortality at 0.1 % (Pieris Brassicae; 0,1 % a.p.): 0% | % mort. Tetran. Urt. adults (Tetran. Urt. adults; 1 % a.p.): 57%

CC(C)OP(=S)(NCC=C(Cl)Cl)Oc1cc(Cl)c(Cl)cc1Cl (stereo not drawn) [M 7147]
mortality at 1 % [2]: 75% | mortality at 1 % (Pieris Brassicae): 20% | % mort. Tetran. Urt. adults (Tetran. Urt. adults; 1 % a.p.): 47%

COP(=S)(NCC(C)C)Oc1cc(Cl)c(Cl)cc1Cl (stereo not drawn)
Percentual death-rate on Musca domestica (Musca domestica [1]): 92%

CCOP(=S)(Oc1ccc(SC)c(C)c1)N(C)CC=C(Cl)Cl (stereo not drawn) [M 7470]
% mort. Spodopt. Littoralis (Spodopt. Littoralis): 25% | % mort. Tetran. Urt. adults (Tetran. Urt. adults; 0,01 % a.p.): 4%

CCOP(=S)(NCC=C(Cl)Cl)Oc1ccc(SC)c(C)c1 (stereo not drawn) [M 7467]
mortality at 1 % ([2]; 1 % a.p.): 55% | % mort. Spodopt. Littoralis (Spodopt. Littoralis): 30%

COP(=S)(Oc1ccc(SC)c(C)c1)N(C)CC=C(Cl)Cl (stereo not drawn) [Example M7469]
% mort. Tetran Urt. eggs (Tetran Urt. eggs; 0,1 % a.p.): 24% | % mort. Tetran Urt. eggs (Tetran Urt. eggs; 1 % a.p.): 100% | mortality at 1 % [2]: 20% | % mort. Spodopt. Littoralis (Spodopt. Littoralis): 15%

COP(=S)(NCC=C(Cl)Cl)Oc1ccc(SC)c(C)c1 (stereo not drawn) [M 7466]
% mort. Spodopt. Littoralis (Spodopt. Littoralis): 0%

CCOP(=S)(NCC=C(Cl)Cl)Oc1ccc([N+](=O)[O-])c(C)c1 (stereo not drawn) [M 6986]
% mort. Tetran Urt. eggs (Tetran Urt. eggs; 1 % a.p.): 12% | mortality at 0.2 µg/mL (Culex pipiens; 0,2 ppm a.p., read-out: % mort. Oulex Pipens): 100% | mortality at 2 µg/mL (Culex pipiens; read-out: % mort. Oulex Pipens): 100% | mortality at 1 % (Macrosiphum Euphorbiae; 1 % a.p., read-out: % mort. Macrosiphum Euphorbiae): 100% | mortality at 1 % ([2]; 1 % a.p.): 40% | % mort. Spodopt. Littoralis (Spodopt. Littoralis): 5% | mortality at 1 % (Pieris Brassicae; 1 % a.p.): 100% | % mort. Tetran. Urt. adults (Tetran. Urt. adults; 1 % a.p.): 26%

COP(=S)(NCC=C(Cl)Cl)Oc1ccc([N+](=O)[O-])c(C)c1 (stereo not drawn) [M 7415]
mortality at 1 % ([2]; 1 % a.p.): 70%

COP(=S)(NC(C)C)Oc1cc(Cl)c(Cl)cc1Cl (stereo not drawn)
Percentual death-rate on Musca domestica (Musca domestica [1]): 100%

CSc1ccc(OP(=S)(NCC=C(Cl)Cl)OC(C)C)cc1C (stereo not drawn) [Example M7468]
mortality at 0.02 µg/mL (Culex pipiens; 0,02 ppm a.p., read-out: % mort. Oulex Pipens): 30% | mortality at 1 % ([2]; 1 % a.p.): 30% | % mort. Spodopt. Littoralis (Spodopt. Littoralis): 0% | % mort. Tetran. Urt. adults (Tetran. Urt. adults; 0,1 % a.p.): 0%

COP(=S)(NC(C)(C)C)Oc1cc(Cl)c(Cl)cc1Cl (stereo not drawn)
Percentual death-rate on Musca domestica (Musca domestica [1]): 13%

COP(=S)(NCC=C(Cl)Cl)Oc1cc(Cl)c(Cl)cc1Cl (stereo not drawn) [M 7160]
mortality at 1 % ([2]; 1 % a.p.): 40% | % mort. Spodopt. Littoralis (Spodopt. Littoralis): 55%

CCOP(=S)(NCC=C(Cl)Cl)Oc1cc(Cl)c(Cl)cc1Cl (stereo not drawn) [Example 1, O-ethyl-O-(2,4,5-trichlorophenyl)-N-(3,3-dichloro-allyl)amido-thiophosphate]
LD50 [3]: > 100 mg/kg | mortality at 0.005 ppm (Culex pipiens; larvae of third and fourth age, 0.005 p.p.m., after 24 hours, read-out: death-rate): 100% | Percentual death-rate on Musca domestica (Musca domestica [4]; 0.5 γ/insect, Table I): 100% | death-rate (Musca domestica [4]; adult 4-day flies, topical 1 mm^3 acetone solution at 0.5 γ/mm^3, after 24 hours): 100% | mortality at 0.1 % (Macrosiphum Euphorbiae; read-out: percentual death-rate): 100% | mortality at 0.1 % ([2]; 4-day old larvae on potato plants, aqueous 0.1% dispersion, after 48 hrs, read-out: percentual death-rate of the larvae): 100%

From patent US4087489A, “Insecticidal N-polychloroallylamido-thiophosphoric esters” (priority 1975, dated 1978)
